This data set in a line: Terbinafine serum concentration after topical administration (LC-MSMS). As to conditions: topical terbinafine formulation, 6.0 mg dose; day 1 and week 12; all individuals, each time point, steady state and all trough levels. In kind it is in vivo, human. On the procedure: Blood samples (2.7 ml) for the determination of terbinafine concentrations in serum were taken before the first application (0 hour) and 0.5, 1, 2, 4, 8, and 12 hours after administration of a 6.0 mg dose of topical terbinafine. The sample 12 hours following the first administration was taken before the second daily administration of the topical terbinafine formulation.
Serum samples for terbinafine were analyzed by LC-MSMS. The internal standard used was naftifine. Samples were prepared by adding 50 μL serum to 50 μL methanol and 300 μL of internal standard solution (50 μg/L naftifine in 9:1 acetonitrile/methanol solution). The solution was allowed to stand for 5 minutes, and then subjected to centrifugation. After centrifugation, 50 μL of the supernatant was added to 450 μL of the mobile phase solution.
The serum concentrations were measured at day 1 and week 12 of the study.

Turning to `CN(C/C=C/C#CC(C)(C)C)Cc1cccc2ccccc12` [terbinafine], the Terbinafine serum concentration entry is “less than 1 ng/ml”.

For the origin of these results see patent publication US7820720B2 (TDT Limited, priority 2008, dated 2010).
